Results taken from patent US12419963B2, “Diels-Alder conjugation methods” (priority 2020, dated 2025).
Square brackets hold non-standard residues; d marks the D form. Peptide text beside a SMILES is read from it. * marks the point of attachment. Dolaproine = CO[C@@H]([C@@H]1CCCN1)[C@@H](C)C(=O)O; Dil = CC[C@H](C)[C@H](NC)[C@@H](CC(=O)O)OC; X1 = C[C@@H](N*)[C@H](O)c1ccccc1; NMeV = CN[C@H](C(=O)O)C(C)C

Tests used:
SKBR3 (Her2+) cells = experiment: In vitro cytotoxicity assay (CCK8 cell viability), SKBR3; assay type: cell-based
Description: (§1) In this Example, the ability of various antibody-drug conjugates and naked payloads to kill antigen-expressing tumor cells in vitro was assessed.
(§2) SKBR3 (Her2+) cells were seeded in 96 well plates at 8000 cells per well in complete growth media and grown overnight. For cell viability curves, serially diluted conjugates or naked payloads were added to the cells at final concentrations ranging from 100 nM to 5 pM and incubated for 3 days. NCI H929 and NCI H1975 (Her2−) cells were run as negative controls using similar conditions. To measure viability, cells were incubated with CCK8 (Dojindo) for the final 2 hours and the absorbance at 450 nm (OD450) was determined on a Victor (Perkin Elmer). Background OD450 levels determined from digitonin (40 nM) treated cells were subtracted from all wells and viability was expressed as a percentage of the untreated controls. IC50 values were determined from a four-parameter logistic equation over a 10-point response curve (GraphPad Prism). […] The interchain disulfide conjugates had similar IC50 values as the transglutaminase site-specific Diels-Alder conjugates. […] IC50 values are corrected for payload equivalents and the results of other transglutaminase site-specific Diels-Alder conjugates' cell viability are shown in Table 5. […]

NCI H929 (Her2−) cells = experiment: In vitro cytotoxicity assay (CCK8 cell viability), NCI H929 negative control; assay type: cell-based
Description: as §1, §2

SMILES: CC[C@H](C)[C@@H]([C@@H](CC(=O)N1CCC[C@H]1[C@H](OC)[C@@H](C)C(=O)N[C@H](C)[C@H](O)c1ccccc1)OC)N(C)C(=O)[C@@H](NC(=O)[C@@H](NC)C(C)C)C(C)C [MMAE, Monomethyl auristatin E] (H-[NMeV]V[Dil][Dolaproine]-X1)
- IC50 (SKBR3 (Her2+) cells; Homo sapiens, SK-BR-3, 72 h): 31 pM
- % Kill (SKBR3 (Her2+) cells; SK-BR-3 cells, 3 days incubation, CCK8): 97.3%
- IC50 (NCI H929 (Her2−) cells; Homo sapiens, NCI-H929, 72 h): 209 pM
- % Kill (NCI H929 (Her2−) cells; NCI H929 cells (HER2-), 3 days incubation, CCK8): 99.7%
